The text below walks through data of the NIST ThermoML archive (doi:10.1016/j.tca.2016.08.003).

Numbers after ± are expanded uncertainties.

For series [1] the following is noted: Crystal; DTA.
Series [2] is described as follows: Molar enthalpy of transition or fusion. To be noted: Crystal; DSC.

`O=[N+]([O-])[O-].[Na+]` [sodium nitrate]: in series [1], the Normal melting temperature turned out to be 305.90 ± 0.6 °C. The “Molar enthalpy of transition or fusion” value in series [2] was determined as 15.5 ± 0.34 kJ/mol.

For `O=[N+]([O-])[O-].[Rb+]` [rubidium nitrate], the Normal melting temperature in series [1] came out at 309.50 ± 2 °C. Besides, the “Molar enthalpy of transition or fusion” value in series [2] was 4.91 ± 0.31 kJ/mol.

With `O=[N+]([O-])[O-].[K+]` [potassium nitrate], the Normal melting temperature in series [1] was found to be 333.80 ± 1.1 °C. Further, the “Molar enthalpy of transition or fusion” value in series [2] is 10.4 ± 0.3 kJ/mol.
